# Experimental data taken from US20020076833A1, “Analysis of biological samples utilizing a coated solid phase” (priority 2000, published 2002).
# Tests used:
# Format in all cases: cell-based, human
# [1] = tested on: membrane-bound P-selectin on platelets; assay: 1-Step membrane P-selectin assay in whole blood (Example 5); details: 10 μM ADP for two minutes, formalin fixed
# Description: Whole blood was obtained from a healthy volunteer and collected into a blood collection tube containing D-phe-pro-arg-chloromethylketone (PPACK, Dihydrochloride). An aliquot of whole blood was stimulated with 10 μM adenosine diphosphate (ADP) for two minutes and then fixed for two minutes with neutral buffered formalin (1% final concentration). Another aliquot was not treated with ADP, but only fixed with 1% neutral buffered formalin for two minutes
# To 100 μL of each of the above three sample preparations the following reagents were added: 50 μL of FITC-labeled anti-P-selectin (anti-CD62P) rabbit polyclonal antibody (at 20 μg/mL) and 50 μL of 0.5% (w/v) paramagnetic microparticles (3.7 micron (μm)) coated with anti-glycoprotein GPIb (CD42b) murine monoclonal antibody (Mab). The mixtures were incubated at room temperature for either 10 or 15 minutes. The microparticles were separated magnetically and the supernatant was removed. The microparticles were washed by re-suspension in 200 μL of PBS supplemented with 1% bovine serum albumin (BSA) followed by magnetic separation of the microparticles and removal of the supernatant. This sequence was repeated and the microparticles were re-suspended in 0.1% SDS at pH 11. The microparticles were separated magnetically and the supernatants were transferred to a 96 well plate and examined for fluorescence intensity.
# [2] = tested on: membrane P-selectin on platelets; assay: 2-Step membrane P-selectin assay in whole blood (Example 6); details: 10 μM ADP (with 1.0 uM Epinepherine where named) for two minutes, formalin treated
# Description: Whole blood was obtained from a healthy volunteer and collected into a sample collection tube containing D-Phe-Pro-Arg-chloromethylketone (PPACK, dihydrochloride). An aliquot of whole blood was stimulated with 10 μM adenosine diphosphate (ADP) and 1.0 uM Epinepherine for two minutes and then treated for two minutes with neutral buffered formalin (1% final concentration). An additional aliquot of whole blood was stimulated with 10 μM ADP for two minutes and then treated for two minutes with neutral buffered formalin. An additional aliquot of whole blood was treated for two minutes with 1% neutral buffered formalin for two minutes without ADP stimulation.
# 50 μL of 0.5% (w/v) paramagnetic microparticles (3.7 micron (μm)), which were coated with anti-glycoprotein GP1b murine monoclonal antibodies (Mab), were added to 100 μL of each of the above sample preparations. The mixtures were incubated at room temperature for 10 minutes. The microparticles were separated magnetically and the supernatant was removed. The microparticles were washed by re-suspension in 200 μL of PBS supplemented with 1% BSA. The microparticles were again separated magnetically and the supernatant removed. […] The microparticles were separated magnetically and the supernatants transferred to a 96 well plate and examined for fluorescence intensity.
# [3] = tested on: membrane GPIIb/IIIa on platelets; assay: GPIIb/IIIa assay with fibrinogen-coated microparticles (Example 7); details: two minutes
# Description: 3.7 micron (μm) carboxyl-modified paramagnetic microparticles were coated with Human Fibrinogen which interacts and binds with the complexed form of the platelet membrane surface component glycoproteins GPIIb/GPIIIa (CD41/CD61). The coated particles were re-suspended in phosphate buffered saline (PBS) buffer at 0.5% w/v.
# (§1) Whole blood was obtained from a healthy volunteer and collected into a 3.0 mL blood collection tube containing 0.3 μg D-phe-pro-arg-chloromethylketone (PPACK, Dihydrochloride) and 2.1 mL Hanks' Balanced Salt supplemented with 10 mM HEPES, pH 7.4. An aliquot of this whole blood preparation was stimulated with 10 μM adenosine 5′-diphosphate (ADP) for two minutes prior to being tested in the assay. Another aliquot was stimulated with 2 μM adenosine 5′-diphosphate (ADP) for two minutes prior to being tested in the assay, and a final aliquot was not treated with ADP.
# To a set of 5 μL, 10 μL, and 20 μL of each of the above three sample preparations 20 μL of FITC-labeled anti-IIb/IIIa (anti-CD41a) mouse monoclonal antibody (at 20 μg/mL) was added. The mixture was incubated for 10 minutes at room temperate at which point 50 μL of 0.5% (w/v) paramagnetic microparticles (3.7 micron (μm)) coated with Fibrinogen was added. The mixtures were incubated at room temperature for an additional 10 minutes. The microparticles were separated magnetically and the supernatant was removed. The microparticles were washed by re-suspension in 200 μL of PBS supplemented with 1% bovine serum albumin (BSA), followed by magnetic separation of the microparticles and removal of the supernatant. This sequence was repeated three times and the microparticles were re-suspended in 0.1% SDS at pH 11. The microparticles were separated magnetically and the supernatants were transferred to a 96 well plate and examined for fluorescence intensity.
# [4] = tested on: membrane-bound P-selectin on platelets; assay: Membrane P-Selectin assay (Example 8); details: two minutes
# Description: as §1
# To a set of 10 μL and 20 μL of each of the above three sample preparations 20 μL of FITC-labeled anti P-Selectin (anti-CD62P) rabbit polyclonal antibody (at 20 μg/mL) was added. The mixture was incubated for 10 minutes at room temperate at which point 50 μL of 0.5% (w/v) paramagnetic microparticles (3.7 micron (μm)) coated with anti-glycoprotein GP1b (CD42b) murine monoclonal antibody (Mab) was added. The mixtures were incubated at room temperature for an additional 10 minutes. The microparticles were separated magnetically and the supernatant was removed. The microparticles were washed by re-suspension in 200 μL of PBS supplemented with 1% bovine serum albumin (BSA) followed by magnetic separation of the microparticles and removal of the supernatant. This sequence was repeated three times and the microparticles were re-suspended in 0.1% SDS at pH 11. The microparticles were separated magnetically, and the supernatants were transferred to a 96 well plate and examined for fluorescence intensity.
smiles,measurement,setting,value
"Nc1ncnc2c1ncn2[C@@H]1O[C@H](COP(=O)(O)OP(=O)(O)O)[C@@H](O)[C@H]1O [ADP, adenosine diphosphate]",FITC Signal Detected,[1]; 10 min. incubation,1235
same,FITC Signal Detected,[1]; 15 min. incubation,1526
same,FITC Signal Detected,[2],17349
same,FITC Signal Detected,"[3]; 2 uM ADP, sample volume 5 μL",524
same,FITC Signal Detected,"[3]; 2 uM ADP, sample volume 10 μL",579
same,FITC Signal Detected,"[3]; 2 uM ADP, sample volume 20 μL",896
same,FITC Signal Detected,"[3]; 10 uM ADP, sample volume 5 μL",525
same,FITC Signal Detected,"[3]; 10 uM ADP, sample volume 10 μL",616
same,FITC Signal Detected,"[3]; 10 uM ADP, sample volume 20 μL",1031
same,FITC Signal Detected,"[4]; 2 μM ADP, sample volume 10 μL",1544
same,FITC Signal Detected,"[4]; 2 μM ADP, sample volume 20 μL",2390
same,FITC Signal Detected,"[4]; 10 μM ADP, sample volume 10 μL",1749
same,FITC Signal Detected,"[4]; 10 μM ADP, sample volume 20 μL",2747
